Each block holds one molecule with its values, some of them ahead of it.
Tests used:
Steryl-sulfatase [1] = target: T1, Steryl-sulfatase (Homo sapiens, UniProt P08842); test: (§1) Inhibitory activity against steroid sulfatase (STS)
T1 sequence (P08842 whole entry): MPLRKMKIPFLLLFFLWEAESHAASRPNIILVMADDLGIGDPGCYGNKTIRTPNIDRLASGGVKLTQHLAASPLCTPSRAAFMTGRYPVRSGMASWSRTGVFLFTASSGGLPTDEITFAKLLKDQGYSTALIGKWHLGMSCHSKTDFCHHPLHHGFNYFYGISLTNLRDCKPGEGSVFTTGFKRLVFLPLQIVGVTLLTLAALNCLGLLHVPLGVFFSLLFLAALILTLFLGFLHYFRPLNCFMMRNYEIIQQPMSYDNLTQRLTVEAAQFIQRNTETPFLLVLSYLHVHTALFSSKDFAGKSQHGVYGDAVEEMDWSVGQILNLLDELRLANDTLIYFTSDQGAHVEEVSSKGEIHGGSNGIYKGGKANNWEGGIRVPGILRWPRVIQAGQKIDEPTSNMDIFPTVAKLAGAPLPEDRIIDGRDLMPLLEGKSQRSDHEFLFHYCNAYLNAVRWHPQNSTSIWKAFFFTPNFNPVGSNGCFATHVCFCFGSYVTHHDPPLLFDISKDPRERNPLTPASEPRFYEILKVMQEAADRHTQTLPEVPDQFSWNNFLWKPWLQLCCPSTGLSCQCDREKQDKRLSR

Steryl-sulfatase [2] = target: T1, Steryl-sulfatase; test: Competitive inhibitory activity against steroid sulfatase (STS)
[3] = target: T2, Steryl-sulfatase (Homo sapiens) (UniProt P08842); test: as §1
T2 sequence (whole entry): T1 sequence (P08842 whole entry)

Steryl-sulfatase [4] = target: T1, Steryl-sulfatase; test: Inhibitory activity against steroid sulfatase (STS) using methodology of Li et al.
[5] = target: T2, Steryl-sulfatase (Homo sapiens)
[6] = substrate: C[C@]12CC[C@@H]3c4ccc(OS(=O)(=O)O)cc4CC[C@H]3[C@@H]1CCC2=O; test: Michaelis-Menten constant steroid sulfatase (STS) was determined

Molecule: C[C@]12CC[C@@H]3c4ccc(CS(=O)(=O)O)cc4CC[C@H]3[C@@H]1CC/C2=C\O
Ki (Steryl-sulfatase [1]): 140 µM

Molecule: C[C@]12CC[C@@H]3c4ccc(Cc5nnn[nH]5)cc4CCC3[C@@H]1CCC2=O (single isomer, unassigned)
Alpha Ki [3]: 213 µM
Ki (Steryl-sulfatase [1]): 72.7 µM

Molecule: C[C@]12CC[C@@H]3c4ccc(CS(=O)(=O)O)cc4CCC3[C@@H]1CCC2=O (single isomer, unassigned)
Ki (Steryl-sulfatase [1]): 140 µM
Ki (Steryl-sulfatase [4]): 600 µM
Alpha Ki [5]: 1380 µM

Molecule: C[C@]12CC[C@@H]3c4ccc(C(F)(F)S(=O)(=O)O)cc4CCC3[C@@H]1CCC2=O (single isomer, unassigned)
Ki (Steryl-sulfatase [2]): 57 µM

B1: Steryl-sulfatase (Homo sapiens), P08842 (protein)
chain: T1 sequence (P08842 whole entry)
Km [6]: 21 µM

Continued, values first:

Ki (Steryl-sulfatase [1]): 37 µM
Molecule: C[C@]12CC[C@@H]3c4ccc(C(F)(F)S(=O)(=O)O)cc4CC[C@H]3[C@@H]1CC/C2=C\O

Ki (Steryl-sulfatase [2]): 16 µM
Molecule: C[C@]12CC[C@@H]3c4ccc(C(F)(F)C5N=NN=N5)cc4CC[C@H]3[C@@H]1CCC2=O

Source: ChEMBL document CHEMBL1146685, “The difluoromethylene group as a replacement for the labile oxygen in steroid sulfates: a new approach to steroid sulfatase inhibitors” (Bioorg Med Chem Lett, 2004)
